SMILES strings stand for the structures.

What is called IC50 is the point on the concentration scale where inhibition reaches its midpoint.

This experiment deals with T1, CCR1 (Homo sapiens, UniProt P32246).
T1 construct: host or cells: Non-adherent cells
T1 sequence (P32246 1-355): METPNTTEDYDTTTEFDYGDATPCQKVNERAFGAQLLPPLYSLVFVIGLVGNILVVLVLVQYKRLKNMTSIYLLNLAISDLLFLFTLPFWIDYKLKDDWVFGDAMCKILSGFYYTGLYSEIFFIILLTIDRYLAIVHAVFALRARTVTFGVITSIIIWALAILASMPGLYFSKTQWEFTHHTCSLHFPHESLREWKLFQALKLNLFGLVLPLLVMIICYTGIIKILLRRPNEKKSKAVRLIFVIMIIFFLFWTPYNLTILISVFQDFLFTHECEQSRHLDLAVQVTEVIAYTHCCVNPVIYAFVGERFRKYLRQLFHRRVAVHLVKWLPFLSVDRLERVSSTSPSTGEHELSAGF
Kind of experiment: functional cellular assay measuring calcium flux in CCR1 transfected cells (block of CCR1/MIP-1α interaction). It counts as cell-based. The settings on record: cells stably expressing recombinant CCR1 and G-alpha-16, MIP-1alpha added at EC80. Here is the method:
Compounds are assessed for the ability to block the interaction of CCR1 and MIP-1α in a functional cellular assay measuring calcium flux in CCR1 transfected cells.
Non-adherent cells purchased from Chemicon Corporation (HTS005C), stably expressing recombinant CCR1 and G-alpha-16 are grown in RPMI 1640 medium (Mediatech 10-080-CM) supplemented with 10% FBS, 0.4 mg/mL Geneticin and penicillin/streptomycin. On the day of the assay, the cells are loaded with Calcium 4 dye (Molecular Devices R7448) with Probenecid (Invitrogen P346400) at 8E5 cells/mL for 1 hour at room temperature. After 1 hour, they are seeded in a 384-well tissue culture-treated plate at a density of 20,000 cells/well. Appropriately diluted test compound is added to the well to achieve a top concentration of 3,000 nM (diluted 4-fold with 10 doses total). The final concentration of DMSO is 1%. The buffer is HBSS (Invitrogen 14025) with 20 mM HEPES at pH 7.4. The cells incubate 30 minutes at 37 C and then 30 minutes at room temperature. The plates are transferred to the […] FDSS6000 where MIP-1alpha in 1% BSA is added at the EC80 final concentration. All plates must be read within 4 hours of the start of dye-loading. Wells +/− MIP-1alpha containing diluted DMSO instead of compound serve as the controls. Data are analyzed using Activity Base software.
In general terms: A change in cytosolic calcium serves as a functional read-out for many receptors and channels.
Take `NS(=O)(=O)c1ccc(C2(NC(=O)c3cncc4c3cnn4-c3ccc(F)cc3)CC2)cn1` [1-(4-Fluoro-phenyl)-1H-pyrazolo[3,4-c]pyridine-4-carboxylic acid [1-(6-sulfamoyl-pyridin-3-yl)-cyclopropyl]-amide]: the IC50 stood at 5 nM. To `O=C(NC1(c2ccc(Cl)cc2)CC1)c1cncc2c1cnn2-c1ccc(F)cc1` [1-(4-Fluoro-phenyl)-1H-pyrazolo[3,4-c]pyridine-4-carboxylic acid [1-(4-chloro-phenyl)-cyclopropyl]-amide] belongs 10 nM; to `CNC(=O)c1cccc(C2(NC(=O)c3cncc4c3cnn4-c3ccc(F)cc3)CC2)c1` [1-(4-Fluoro-phenyl)-1H-pyrazolo[3,4-c]pyridine-4-carboxylic acid [1-(3-methylcarbamoyl-phenyl)-cyclopropyl]-amide], 2 nM. In the case of `O=C(NC1(c2ccc(Br)nc2)CC1)c1cncc2c1cnn2-c1ccc(F)cc1` [1-(4-Fluoro-phenyl)-1H-pyrazolo[3,4-c]pyridine-4-carboxylic acid [1-(6-bromo-pyridin-3-yl)-cyclopropyl]-amide], the IC50 was found to be 19 nM.

Consider `CNc1ccc(C2(NC(=O)c3cncc4c3cnn4-c3ccc(F)cc3)CC2)cn1` [1-(4-Fluoro-phenyl)-1H-pyrazolo[3,4-c]pyridine-4-carboxylic acid [1-(6-methylamino-pyridin-3-yl)-cyclopropyl]-amide], for which the IC50 turned out to be 28 nM. To `O=C(NC1(c2cccc(Br)c2)CC1)c1cncc2c1cnn2-c1ccc(F)cc1` [1-(4-Fluoro-phenyl)-1H-pyrazolo[3,4-c]pyridine-4-carboxylic acid [1-(3-bromo-phenyl)-cyclopropyl]-amide] belongs 1 nM. In the case of `O=C(NC1(c2cc(Cl)ccn2)CC1)c1cncc2c1cnn2-c1ccc(F)cc1` [1-(4-Fluoro-phenyl)-1H-pyrazolo[3,4-c]pyridine-4-carboxylic acid [1-(4-chloro-pyridin-2-yl)-cyclopropyl]-amide], the IC50 worked out at 17 nM. Turning to `O=C(NC1(c2ccc(Br)cn2)CC1)c1cncc2c1cnn2-c1ccc(F)cc1` [1-(4-Fluoro-phenyl)-1H-pyrazolo[3,4-c]pyridine-4-carboxylic acid [1-(5-bromo-pyridin-2-yl)-cyclopropyl]-amide], the IC50 stood at 9 nM.

On to `O=C(NC1(c2ccnc(Br)c2)CCC1)c1cncc2c1cnn2-c1ccc(F)cc1` [1-(4-Fluoro-phenyl)-1H-pyrazolo[3,4-c]pyridine-4-carboxylic acid [1-(2-bromo-pyridin-4-yl)-cyclobutyl]-amide], for which the IC50 was 3 nM. With `COC(=O)[C@H](C)NC(=O)c1cccc(C2(NC(=O)c3cncc4c3cnn4-c3ccc(F)cc3)CC2)c1` [(S)-2-[3-(1-{[1-(4-Fluoro-phenyl)-1H-pyrazolo[3,4-c]pyridine-4-carbonyl]-amino}-cyclopropyl)-benzoylamino]-propionic acid methyl ester], the IC50 was determined as 80 nM. In the case of `Cc1cccc(C2(NC(=O)c3cncc4c3cnn4-c3ccc(F)cc3)CC2)c1` [1-(4-Fluoro-phenyl)-1H-pyrazolo[3,4-c]pyridine-4-carboxylic acid (1-m-tolyl-cyclopropyl)-amide], the IC50 amounted to 26 nM.

`NCc1ccc(C2(NC(=O)c3cncc4c3cnn4-c3ccc(F)cc3)CC2)nc1` [1-(4-Fluoro-phenyl)-1H-pyrazolo[3,4-c]pyridine-4-carboxylic acid [1-(5-aminomethyl-pyridin-2-yl)-cyclopropyl]-amide]: the IC50 is 705 nM. To `CS(=O)(=O)c1cc(C2(NC(=O)c3cc(I)cc4c3cnn4-c3ccc(F)cc3)CC2)ccn1` [1-(4-Fluoro-phenyl)-6-iodo-1H-indazole-4-carboxylic acid [1-(2-methanesulfonyl-pyridin-4-yl)-cyclopropyl]-amide] belongs 13 nM. To `O=C(NC1(c2ccc(Br)cc2)CC1)c1cncc2c1cnn2-c1ccc(F)cc1` [1-(4-Fluoro-phenyl)-1H-pyrazolo[3,4-c]pyridine-4-carboxylic acid [1-(4-bromo-phenyl)-cyclopropyl]-amide] belongs 4 nM; to `COc1ccc(C2(NC(=O)c3cncc4c3cnn4-c3ccc(F)cc3)CCC2)cc1` [1-(4-Fluoro-phenyl)-1H-pyrazolo[3,4-c]pyridine-4-carboxylic acid [1-(4-methoxy-phenyl)-cyclobutyl]-amide], 51 nM. On to `O=C(NC1(c2cccc(C(F)(F)F)c2)CC1)c1cncc2c1cnn2-c1ccc(F)cc1` [1-(4-Fluoro-phenyl)-1H-pyrazolo[3,4-c]pyridine-4-carboxylic acid [1-(3-trifluoromethyl-phenyl)-cyclopropyl]-amide], for which the half-maximal inhibitory concentration (IC50) is 0.4 nM.

As for `Cc1nc(C2(NC(=O)c3cncc4c3cnn4-c3ccc(F)cc3)CC2)cs1` [1-(4-Fluoro-phenyl)-1H-pyrazolo[3,4-c]pyridine-4-carboxylic acid [1-(2-methyl-thiazol-4-yl)-cyclopropyl]-amide], the concentration for half-maximal inhibition (IC50) was found to be 99 nM.

Take `NC(=O)CNC(=O)c1cccc(C2(NC(=O)c3cncc4c3cnn4-c3ccc(F)cc3)CC2)c1` [1-(4-Fluoro-phenyl)-1H-pyrazolo[3,4-c]pyridine-4-carboxylic acid {1-[3-(carbamoylmethyl-carbamoyl)-phenyl]-cyclopropyl}-amide]: the IC50 turned out to be 74 nM.

As to `O=C(NC1(c2ncc(Br)cn2)CC1)c1cncc2c1cnn2-c1ccc(F)cc1` [1-(4-Fluoro-phenyl)-1H-pyrazolo[3,4-c]pyridine-4-carboxylic acid [1-(5-bromo-pyrimidin-2-yl)-cyclopropyl]-amide], the IC50 came to 45 nM. On to `COc1cccc(C2(NC(=O)c3cncc4c3cnn4-c3ccc(F)cc3)CC2)c1` [1-(4-Fluoro-phenyl)-1H-pyrazolo[3,4-c]pyridine-4-carboxylic acid [1-(3-methoxy-phenyl)-cyclopropyl]-amide], for which the IC50 was 5 nM.

As to `O=C(O)c1ccc(C2(NC(=O)c3cncc4c3cnn4-c3ccc(F)cc3)CC2)cc1` [4-(1-{[1-(4-Fluoro-phenyl)-1H-pyrazolo[3,4-c]pyridine-4-carbonyl]-amino}-cyclopropyl)-benzoic acid], the IC50 is 69 nM. With `O=C(NC1(c2nc(C3CC3)no2)CC1)c1cncc2c1cnn2-c1ccc(F)cc1` [1-(4-Fluoro-phenyl)-1H-pyrazolo[3,4-c]pyridine-4-carboxylic acid [1-(3-cyclopropyl-1,2,4-oxadiazol-5-yl)-cyclopropyl]-amide], the IC50 was determined as 11 nM. On to `O=C(NC1(c2noc(C3CC3)n2)CC1)c1cncc2c1cnn2-c1ccc(F)cc1` [1-(4-Fluoro-phenyl)-1H-pyrazolo[3,4-c]pyridine-4-carboxylic acid [1-(5-cyclopropyl-1,2,4-oxadiazol-3-yl)-cyclopropyl]-amide], for which the IC50 was determined as 61 nM.

`CS(=O)(=O)c1ccc(C2(NC(=O)c3cncc4c3cnn4-c3ccc(F)cc3)CC2)cn1` [1-(4-Fluoro-phenyl)-1H-pyrazolo[3,4-c]pyridine-4-carboxylic acid [1-(6-methanesulfonyl-pyridin-3-yl)-cyclopropyl]-amide]: the IC50 turned out to be 7 nM. `CC(C)(C)OC(=O)NCc1ccnc(C2(NC(=O)c3cncc4c3cnn4-c3ccc(F)cc3)CC2)c1` [[2-(1-{[1-(4-Fluoro-phenyl)-1H-pyrazolo[3,4-c]pyridine-4-carbonyl]-amino}-cyclopropyl)-pyridin-4-ylmethyl]-carbamic acid tert-butyl ester]: the half-maximal inhibitory concentration (IC50) was determined as 285 nM. Turning to `COC(=O)c1cccc(C2(NC(=O)c3cncc4c3cnn4-c3ccc(F)cc3)CC2)c1` [3-(1-{[1-(4-Fluoro-phenyl)-1H-pyrazolo[3,4-c]pyridine-4-carbonyl]-amino}-cyclopropyl)-benzoic acid methyl ester], the half-maximal inhibitory concentration (IC50) stood at 11 nM. Regarding `COC(=O)CCS(=O)(=O)c1ccc(C2(NC(=O)c3cncc4c3cnn4-c3ccc(F)cc3)CC2)cn1` [3-[5-(1-{[1-(4-Fluoro-phenyl)-1H-pyrazolo[3,4-c]pyridine-4-carbonyl]-amino}-cyclopropyl)-pyridine-2-sulfonyl]-propionic acid methyl ester], the IC50 came to 10 nM. For `O=C(NC1(c2ccc(F)cc2)CCC1)c1cncc2c1cnn2-c1ccc(F)cc1` [1-(4-Fluoro-phenyl)-1H-pyrazolo[3,4-c]pyridine-4-carboxylic acid [1-(4-fluoro-phenyl)-cyclobutyl]-amide], the IC50 turned out to be 62 nM. With `O=C(NC1(c2cc(I)ccn2)CC1)c1cncc2c1cnn2-c1ccc(F)cc1` [1-(4-Fluoro-phenyl)-1H-pyrazolo[3,4-c]pyridine-4-carboxylic acid [1-(4-iodo-pyridin-2-yl)-cyclopropyl]-amide], the IC50 came to 2 nM.

(Values after patent US9056858B2, “Indazole and pyrazolopyridine compounds as CCR1 receptor antagonists” (Boehringer Ingelheim International GmbH, priority 2009, dated 2015).)
